# Starred links: 1 amine or outer side, 2 acyl side, 3 side chain; linkers in the order of their positions; H or OH if unused. Positions of bridges follow the written chain, without caps; N, C: chain ends. Non-standard residues stand in square brackets, D forms with d. Residues, ends and D or L forms follow the SMILES beside them. *: point of attachment. dProlinol(O-CH2CO) = O=C(COC[C@H]1CCCN1[*:1])[*:2]; N(2-Aminoethyl)Gly = O=C(CN(CCN[*:3])[*:1])[*:2]; Nle = CCCC[C@H](N)C(=O)O; Ms = CS(=O)(=O)*
# Tested on: H929 myeloma cells
# Format: cell-based
# Conditions: 24 h
# Experimental: H929 cells were treated for 24 hours with varying concentrations of peptide. Cell death was measured by Topro-3 staining and FACS analysis. The IC50 values were obtained from linear regression analysis and an average value was obtained from 3 independent experiments.
# Table 4 legend: Structure activity relationship in H929 myeloma cells of cyclic INTEGRIN INTERACTION INHIBITORS derivatives. The minimal bioactive core sequence of INTEGRIN INTERACTION INHIBITORS WSVVM (SEQ ID NO:85) was cyclized using 2 novel reduced amide bond beta turn promoters and KLKLK (SEQ ID NO:27) as the non-recognition sequence. H929 cells were treated with varying concentrations of the indicated peptide for 24 h. Cell viability was determined using Topro-3 staining and FACS analysis after drug treatment. IC50 values were generated from linear regressions generated from the dose response curves (n=mean of 3 independent experiments).
# Using combinatorial peptide libraries and a functional binding assay, several peptides have been identified that inhibited α2β1 and α6β1 integrin mediated adhesion of prostate cancer cells to fibronectin, laminin and collagen IV.^1 They identified an all D-amino acid containing peptide referred as HYD1 ([…]) (SEQ ID NO:278) that blocks binding of epithelial prostate carcinoma cells to extracellular matrix components.^2,3 Hazlehurst and co-workers have truncated the N- and C-termini and alanine scan studies identified MVISW (SEQ ID NO:279) as the likely core region of linear D-HYD1 required for biological activity. […] The pentapeptide (KLKLK) (SEQ ID NO:27) was selected as the non-recognition strand to improve the solubility. N- to C-terminus cyclization of linear peptides was done to restrict the number of conformations available to the linear peptide which increases the affinity of the cyclized peptide for its target when the constraint stabilizes the bound conformation of the peptide. We synthesized cyclic D-HYD1 using a novel methylsulfonamide aminoethyl glycine linker T1 that connects two anti-parallel strands. […] The inverso- (peptide 2, Table 4) and partially modified retro-inverso (PMRI) (peptide 10) pentapeptide sequences of the recognition strand of cyclic III (Integrin Interaction Inhibitors also known as cyclic L-HYD1) peptide analogs were subsequently investigated for their potential to block beta integrin mediated cell adhesion. The retro-inverso design of biologically active peptides is a well-known strategy to design all D-amino acid peptides from potentially bioactive all L-peptide sequences with increased stability^4-7.
# A colony forming assay was used to compare induced cell death in H929 multiple myeloma cells. Cells were treated with integrin interaction inhibitors, shown in FIG. 5 and Table 4, and cell death was measured following 24 hour peptide treatment by TOPRO-3 staining and FACS analysis.
row,SMILES,IC50 [µM]
1,CSCC[C@@H]1NC(=O)[C@H](C(C)C)NC(=O)[C@H](C(C)C)NC(=O)[C@H](CO)NC(=O)[C@H](Cc2c[nH]c3ccccc23)NC(=O)CN(S(C)(=O)=O)CCNC(=O)[C@H](CCCCN)NC(=O)[C@H](CC(C)C)NC(=O)[C@H](CCCCN)NC(=O)[C@H](CC(C)C)NC(=O)[C@H](CCCCN)NC(=O)CN(S(C)(=O)=O)CCNC1=O [III 8],6.7
2,"CCCC[C@@H]1NC(=O)[C@H](C(C)C)NC(=O)[C@H](C(C)C)NC(=O)[C@H](C)NC(=O)[C@H](Cc2c[nH]c3ccccc23)NC(=O)CN(S(C)(=O)=O)CCNC(=O)[C@H](CCCCN)NC(=O)[C@H](CC(C)C)NC(=O)[C@H](CCCCN)NC(=O)[C@H](CC(C)C)NC(=O)[C@H](CCCCN)NC(=O)CN(S(C)(=O)=O)CCNC1=O [Peptide 11, KLKLKT1WAVVN*T1]",12
3,"CC(C)C[C@@H]1NC(=O)[C@H](CCCCN)NC(=O)CN(S(C)(=O)=O)CCNC(=O)[C@H](C)NC(=O)[C@H](C(C)C)NC(=O)[C@H](C(C)C)NC(=O)[C@H](C)NC(=O)[C@H](Cc2c[nH]c3ccccc23)NC(=O)CN(S(C)(=O)=O)CCNC(=O)[C@H](CCCCN)NC(=O)[C@H](CC(C)C)NC(=O)[C@H](CCCCN)NC1=O [Peptide 12, KLKLKT1WAVVAT1]",69
4,"CCCC[C@@H]1NC(=O)[C@H](C(C)C)NC(=O)[C@H](C)NC(=O)[C@H](C)NC(=O)[C@H](Cc2c[nH]c3ccccc23)NC(=O)CN(S(C)(=O)=O)CCNC(=O)[C@H](CCCCN)NC(=O)[C@H](CC(C)C)NC(=O)[C@H](CCCCN)NC(=O)[C@H](CC(C)C)NC(=O)[C@H](CCCCN)NC(=O)CN(S(C)(=O)=O)CCNC1=O [Peptide 14, KLKLKT1WAAVN*T1]",41
5,"CCCC[C@@H]1NC(=O)[C@H](C(C)C)NC(=O)[C@H](C(C)C)NC(=O)[C@H](C)NC(=O)[C@H](C)NC(=O)CN(S(C)(=O)=O)CCNC(=O)[C@H](CCCCN)NC(=O)[C@H](CC(C)C)NC(=O)[C@H](CCCCN)NC(=O)[C@H](CC(C)C)NC(=O)[C@H](CCCCN)NC(=O)CN(S(C)(=O)=O)CCNC1=O [Peptide 15, KLKLKT1AAVVN*T1]",3
6,"CCCC[C@@H]1NC(=O)CN(S(C)(=O)=O)CCNC(=O)[C@H](CCCCN)NC(=O)[C@H](CC(C)C)NC(=O)[C@H](CCC(N)=O)NC(=O)[C@H](CC(C)C)NC(=O)[C@H](CCCCN)NC(=O)COC[C@H]2CCCN2C(=O)[C@H](Cc2c[nH]c3ccccc23)NC(=O)[C@H](C)NC(=O)[C@H](C(C)C)NC(=O)[C@H](C(C)C)NC1=O [Peptide 17, KLKQKT1N*VVAWT3] (Ms-[N(2-Aminoethyl)Gly][Nle]VVAW[dProlinol(O-CH2CO)]KLQLK; lactam 1-C)",13
7,"CCCC[C@@H]1NC(=O)CN(S(C)(=O)=O)CCNC(=O)[C@H](CCC(N)=O)NC(=O)[C@H](CC(C)C)NC(=O)[C@H](CCCCN)NC(=O)[C@H](CC(C)C)NC(=O)[C@H](CCCCN)NC(=O)COC[C@H]2CCCN2C(=O)[C@H](Cc2c[nH]c3ccccc23)NC(=O)[C@H](C)NC(=O)[C@H](C(C)C)NC(=O)[C@H](C(C)C)NC1=O [Peptide 19, KLKLQT1N*VVAWT3] (Ms-[N(2-Aminoethyl)Gly][Nle]VVAW[dProlinol(O-CH2CO)]KLKLQ; lactam 1-C)",19

# Same assay, conditions: H929 cells
row,SMILES,fold more potent than the parent linear HYD1 peptide [fold]
1,CSCC[C@@H]1NC(=O)CN(S(C)(=O)=O)CCNC(=O)[C@H](CCCCN)NC(=O)[C@H](CC(C)C)NC(=O)[C@H](CCCCN)NC(=O)[C@H](CC(C)C)NC(=O)[C@H](CCCCN)NC(=O)CN(S(C)(=O)=O)CCNC(=O)[C@H](Cc2c[nH]c3ccccc23)NC(=O)[C@H](CO)NC(=O)[C@H](C(C)C)NC(=O)[C@H](C(C)C)NC1=O [III 1],2.5

# Same assay, conditions: H929 cells, 24 hours, Topro-3 and FACS; read-out: IC50 value in H929 cells
row,SMILES,IC50 [µM]
1,"CCCC[C@@H]1NC(=O)CN(S(C)(=O)=O)CCNC(=O)[C@H](CCCCN)NC(=O)[C@H](CC(C)C)NC(=O)[C@H](CCCCN)NC(=O)[C@H](CC(C)C)NC(=O)[C@H](CCCCN)NC(=O)COC[C@H]2CCCN2C(=O)[C@H](Cc2c[nH]c3ccccc23)NC(=O)[C@H](C)NC(=O)[C@H](C(C)C)NC(=O)[C@H](C(C)C)NC1=O [Peptide 16, KLKLKT1N*VVAWT3] (Ms-[N(2-Aminoethyl)Gly][Nle]VVAW[dProlinol(O-CH2CO)]KLKLK; lactam 1-C)",1

# Same assay, conditions: SAR discussion of Table 8
row,SMILES,"bioactivity of cyclic III peptide analogs, in words"
1,"CSCC[C@@H]1NC(=O)CN(S(C)(=O)=O)CCNC(=O)[C@H](CCCCN)NC(=O)[C@H](CC(C)C)NC(=O)[C@H](CCCCN)NC(=O)[C@H](CC(C)C)NC(=O)[C@H](CCCCN)NC(=O)CN(S(C)(=O)=O)CCNC(=O)[C@H](Cc2c[nH]c3ccccc23)NC(=O)[C@H](C)NC(=O)[C@H](C(C)C)NC(=O)[C@H](C(C)C)NC1=O [Peptide 4, KLKLKT1MVVAWT1]",significantly improved the bioactivity
2,"CCCC[C@@H]1NC(=O)CN(S(C)(=O)=O)CCNC(=O)[C@H](CCCCN)NC(=O)[C@H](CC(C)C)NC(=O)[C@H](CCCCN)NC(=O)[C@H](CC(C)C)NC(=O)[C@H](CCCCN)NC(=O)CN(S(C)(=O)=O)CCNC(=O)[C@H](Cc2c[nH]c3ccccc23)NC(=O)[C@H](CO)NC(=O)[C@H](C(C)C)NC(=O)[C@H](C(C)C)NC1=O [Peptide 8, KLKLKT1N*VVSWT1]",further increase of the peptide's bioactivity
3,"CCCC[C@@H]1NC(=O)[C@H](C(C)C)NC(=O)[C@H](C(C)C)NC(=O)[C@H](C)NC(=O)[C@H](C)NC(=O)CN(S(C)(=O)=O)CCNC(=O)[C@H](CCCCN)NC(=O)[C@H](CC(C)C)NC(=O)[C@H](CCCCN)NC(=O)[C@H](CC(C)C)NC(=O)[C@H](CCCCN)NC(=O)CN(S(C)(=O)=O)CCNC1=O [Peptide 15, KLKLKT1AAVVN*T1]",unexpected improvement in bioactivity

# Same assay, conditions: alanine scan and analogs, Table 4 legend, H929 cells
row,SMILES,change in activity relative to the inverso peptide L-cINTEGRIN INTERACTION INHIBITORS
1,CSCC[C@@H]1NC(=O)CN(S(C)(=O)=O)CCNC(=O)[C@H](CCCCN)NC(=O)[C@H](CC(C)C)NC(=O)[C@H](CCCCN)NC(=O)[C@H](CC(C)C)NC(=O)[C@H](CCCCN)NC(=O)CN(S(C)(=O)=O)CCNC(=O)[C@H](C)NC(=O)[C@H](CO)NC(=O)[C@H](C(C)C)NC(=O)[C@H](C(C)C)NC1=O [III 2],decrease in activity
2,CSCC[C@@H]1NC(=O)CN(S(C)(=O)=O)CCNC(=O)[C@H](CCCCN)NC(=O)[C@H](CC(C)C)NC(=O)[C@H](CCCCN)NC(=O)[C@H](CC(C)C)NC(=O)[C@H](CCCCN)NC(=O)CN(S(C)(=O)=O)CCNC(=O)[C@H](Cc2c[nH]c3ccccc23)NC(=O)[C@H](C)NC(=O)[C@H](C(C)C)NC(=O)[C@H](C(C)C)NC1=O [III 3],increase in activity
3,CSCC[C@@H]1NC(=O)CN(S(C)(=O)=O)CCNC(=O)[C@H](CCCCN)NC(=O)[C@H](CC(C)C)NC(=O)[C@H](CCCCN)NC(=O)[C@H](CC(C)C)NC(=O)[C@H](CCCCN)NC(=O)CN(S(C)(=O)=O)CCNC(=O)[C@H](Cc2c[nH]c3ccccc23)NC(=O)[C@H](CO)NC(=O)[C@H](C)NC(=O)[C@H](C(C)C)NC1=O [III 4],decrease in activity
4,CSCC[C@@H]1NC(=O)CN(S(C)(=O)=O)CCNC(=O)[C@H](CCCCN)NC(=O)[C@H](CC(C)C)NC(=O)[C@H](CCCCN)NC(=O)[C@H](CC(C)C)NC(=O)[C@H](CCCCN)NC(=O)CN(S(C)(=O)=O)CCNC(=O)[C@H](Cc2c[nH]c3ccccc23)NC(=O)[C@H](CO)NC(=O)[C@H](C(C)C)NC(=O)[C@H](C)NC1=O [III 5],increase in activity
5,CC(C)C[C@@H]1NC(=O)[C@H](CCCCN)NC(=O)CN(S(C)(=O)=O)CCNC(=O)[C@H](Cc2c[nH]c3ccccc23)NC(=O)[C@H](CO)NC(=O)[C@H](C(C)C)NC(=O)[C@H](C(C)C)NC(=O)[C@H](C)NC(=O)CN(S(C)(=O)=O)CCNC(=O)[C@H](CCCCN)NC(=O)[C@H](CC(C)C)NC(=O)[C@H](CCCCN)NC1=O [III 6],decrease in activity
6,CCCC[C@@H]1NC(=O)CN(S(C)(=O)=O)CCNC(=O)[C@H](CCCCN)NC(=O)[C@H](CC(C)C)NC(=O)[C@H](CCCCN)NC(=O)[C@H](CC(C)C)NC(=O)[C@H](CCCCN)NC(=O)CN(S(C)(=O)=O)CCNC(=O)[C@H](Cc2c[nH]c3ccccc23)NC(=O)[C@H](CO)NC(=O)[C@H](C(C)C)NC(=O)[C@H](C(C)C)NC1=O [III 7],increase in activity
7,CSCC[C@@H]1NC(=O)[C@H](C(C)C)NC(=O)[C@H](C(C)C)NC(=O)[C@H](CO)NC(=O)[C@H](Cc2c[nH]c3ccccc23)NC(=O)CN(S(C)(=O)=O)CCNC(=O)[C@H](CCCCN)NC(=O)[C@H](CC(C)C)NC(=O)[C@H](CCCCN)NC(=O)[C@H](CC(C)C)NC(=O)[C@H](CCCCN)NC(=O)CN(S(C)(=O)=O)CCNC1=O [III 8],increases in activity

# Same assay, conditions: cyclic III peptide analogs, Table 8; H929 cells, TOPRO 3; read-out: IC50
row,SMILES,IC50 [µM]
1,"CCCC[C@@H]1NC(=O)[C@H](C)NC(=O)[C@H](C(C)C)NC(=O)[C@H](C)NC(=O)[C@H](Cc2c[nH]c3ccccc23)NC(=O)CN(S(C)(=O)=O)CCNC(=O)[C@H](CCCCN)NC(=O)[C@H](CC(C)C)NC(=O)[C@H](CCCCN)NC(=O)[C@H](CC(C)C)NC(=O)[C@H](CCCCN)NC(=O)CN(S(C)(=O)=O)CCNC1=O [Peptide 13, KLKLKT1WAVAN*T1]",26

# From patent US10059740B2, “Integrin interaction inhibitors for the treatment of cancer” (H. LEE MOFFITT CANCER CENTER AND RESEARCH INSTITUTE, INC., priority 2010, dated 2018)
